This note sets out measurements from publication PMC3641831 (Biochemistry, 2010).

The test deals with poly(dA)•2poly(dT). Description: UV denaturation, triplex transition. The class given is binding.

On to `c1cc2ccc3cccc4ccc(c1)c2c34` [Compound 5, reference compound], for which the “stabilization of DNA triplex” value is reported as “does not stabilize”.
